Results on 30 compounds are retold here after US6743790B2, “Factor VIIa inhibitory (thio)urea derivatives, their preparation and their use” (Aventis Pharma Deutschland GmbH, priority 2000, dated 2004).

For orientation: Ki means the equilibrium dissociation constant of an inhibitor or competing ligand from its target. Read a low Ki as higher affinity. Broadly, the melting point is the temperature of the solid-liquid transition.

One data set deals with T1, factor VIIa/tissue factor (Homo sapiens, UniProt P08709).
T1 construct: human factor VIIa and TF (5 nM and 10 nM, respective final concentration)
T1 sequence (P08709 213-466 limits assumed): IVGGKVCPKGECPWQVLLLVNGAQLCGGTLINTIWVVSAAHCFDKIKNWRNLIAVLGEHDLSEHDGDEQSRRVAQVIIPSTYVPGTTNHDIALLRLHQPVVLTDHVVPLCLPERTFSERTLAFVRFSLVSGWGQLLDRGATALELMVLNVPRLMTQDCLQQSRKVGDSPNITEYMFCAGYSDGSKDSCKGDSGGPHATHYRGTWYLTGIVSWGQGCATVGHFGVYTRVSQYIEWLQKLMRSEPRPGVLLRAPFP
T1 sequence (P08709 61-212 limits assumed): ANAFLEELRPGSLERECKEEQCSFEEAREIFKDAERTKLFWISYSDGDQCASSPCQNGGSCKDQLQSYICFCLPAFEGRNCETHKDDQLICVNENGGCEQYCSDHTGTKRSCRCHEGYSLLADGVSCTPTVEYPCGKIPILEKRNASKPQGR
T1 sequence (P13726 33-295 partner): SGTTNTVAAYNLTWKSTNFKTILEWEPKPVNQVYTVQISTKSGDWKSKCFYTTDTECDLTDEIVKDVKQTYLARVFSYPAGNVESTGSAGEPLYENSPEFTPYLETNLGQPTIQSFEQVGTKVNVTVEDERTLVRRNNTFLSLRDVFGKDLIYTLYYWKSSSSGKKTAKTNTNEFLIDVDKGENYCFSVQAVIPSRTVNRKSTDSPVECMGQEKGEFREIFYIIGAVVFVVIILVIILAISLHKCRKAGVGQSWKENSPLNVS
Description: Factor VIIa (FVIIa) chromogenic assay. It is filed as biochemical. Conditions: human factor VIIa 5 nM and TF 10 nM, substrate S-2288 500 μM, 25° C., 15 minute preincubation. Here is the method:
The ability of the compounds of the formula I to inhibit factor VIIa or other enzymes like factor Xa, thrombin, plasmin, or trypsin is assessed by determining the concentration of the compound of the formula I that inhibits enzyme activity by 50%, i.e. the IC50 value, which is related to the inhibition constant Ki. Purified enzymes are used in chromogenic assays. The concentration of inhibitor that causes a 50% decrease in the rate of substrate hydrolysis is determined by linear regression after plotting the relative rates of hydrolysis (compared to the uninhibited control) versus the log of the concentration of the compound of formula I. For calculating the inhibition constant Ki, the IC50 value is corrected for competition with substrate using the formula Ki=IC50/{1+(substrate concentration/Km)},
wherein Km is the Michaelis-Menten constant (Chen and Prusoff, Biochem. Pharmacol. 22 (1973), 3099-3108; I. H. Segal, Enzyme Kinetics, 1975, John Wiley & Sons, New York, 100-125; which are incorporated herein by reference).
The inhibitory activity (expressed as inhibition constant Ki(FVIIa)) of the compounds of formula I towards factor VIIa/tissue factor activity was determined using a chromogenic assay essentially as described previously (J. A. Ostrem et al., Biochemistry 37 (1998) 1053-1059 which is incorporated herein by reference). Kinetic assays were conducted at 25° C. in half-area microtiter plates (Costar Corp., Cambridge, Mass.) using a kinetic plate reader (Molecular Devices Spectramax 250). A typical assay consisted of 25 μl human factor VIIa and TF (5 nM and 10 nM, respective final concentration) combined with 40 μl of inhibitor dilutions in 10% DMSO/TBS-PEG buffer (50 mM Tris, 15 mM NaCl, 5 mM CaCl2, 0.05% PEG 8000, pH 8.15). Following a 15 minute preincubation period, the assay was initiated by the addition of 35 μl of the chromogenic substrate S-2288 (D-Ile-Pro-Arg-p-nitroanilide, Pharmacia Hepar Inc., 500 μM final concentration).
For `C[C@H](NC(=O)Nc1ccc(C(=N)N)cc1)C(=O)NCc1ccc(C(=N)N)cc1` [Example 1, (S)-N-(4-Carbamimidoylbenzyl)-2-[3-(4-carbamimidoylphenyl)ureido]propionamide], the Ki was determined as 14900 nM.

Take `CN(C)c1ccc(CNC(=O)C(Cc2ccccc2)NC(=O)Nc2ccc(C(=N)N)cc2)cc1` (centres unmarked) [Example 2, 2-[3-(4-Carbamimidoylphenyl)ureido]-N-(4-dimethylaminobenzyl)-3-phenylpropionamide]: the affinity, expressed as Ki, was 20900 nM.

The compound `N=C(N)c1ccc(NC(=O)NCC(=O)NCc2ccc(Cl)c(Cl)c2)cc1` [Example 3, 2-[3-(4-Carbamimidoylphenyl)ureido]-N-(3,4-dichlorobenzyl)acetamide] yielded a Ki of 970 nM.

For `CN(C)c1ccc(CNC(=O)CNC(=O)Nc2ccc(C(=N)N)cc2)cc1` [Example 4, 2-[3-(4-Carbamimidoylphenyl)ureido]-N-(4-dimethylaminobenzyl)acetamide], the Ki worked out at 1940 nM.

With `N=C(N)c1ccc(NC(=O)NCC(=O)NC(c2ccccc2)c2ccccc2)cc1` [Example 5, N-Benzhydryl-2-[3-(4-carbamimidoylphenyl)ureido]acetamide], the affinity, expressed as Ki, was 730 nM.

As for `N=C(N)c1ccc(NC(=O)NCC(=O)NCc2cccc(Cl)c2)cc1` [Example 6, 2-[3-(4-carbamimidoylphenyl)ureido]-N-(3-chlorobenzyl)acetamide], the Ki worked out at 2170 nM.

`CC(NC(=O)CNC(=O)Nc1ccc(C(=N)N)cc1)c1ccc(Oc2ccc(Cl)cc2Cl)cc1` (centres unmarked) [Example 9] registered a Ki of 480 nM.

Take `N=C(N)c1ccc(NC(=O)NCC(=O)NC(Cc2ccccc2)c2ccccc2)cc1` (centres unmarked) [Example 15]: the affinity, expressed as Ki, was 6300 nM.

`C[C@H](NC(=O)CNC(=O)Nc1ccc(C(=N)N)cc1)c1ccccc1` [Example 18] returned a Ki of 430 nM.

Take `C[C@@H](NC(=O)CNC(=O)Nc1ccc(C(=N)N)cc1)c1ccccc1` [Example 19]: the inhibition constant Ki was determined as 20200 nM.

Consider `Cc1ccc([C@H](C)NC(=O)CNC(=O)Nc2ccc(C(=N)N)cc2)cc1` [Example 21], for which the inhibition constant (Ki) worked out at 130 nM.

The compound `C[C@H](NC(=O)CNC(=O)Nc1ccc(C(=N)N)cc1)c1ccc2ccccc2c1` [Example 30] came in with a Ki of 26 nM.

On to `COc1ccc(Oc2ccc(C(C)NC(=O)CNC(=O)Nc3ccc(C(=N)N)cc3)cc2)cc1` (centres unmarked) [Example 36], for which the affinity corresponds to a Ki of 83 nM.

In turn, `CC(NC(=O)CNC(=O)Nc1ccc(C(=N)N)cc1)c1ccc(Oc2ccc([N+](=O)[O-])cc2)cc1` (centres unmarked) [Example 37] came in with an inhibition constant (Ki) of 86 nM.

In turn, `N=C(N)c1ccc(NC(=O)NCC(=O)NCc2ccncc2)cc1` [Example 40] showed a Ki of 7890 nM.

The compound `N=C(N)c1ccc(NC(=O)NCC(=O)NC(c2ccccc2)c2ccncc2)cc1` (centres unmarked) [Example 41] yielded a Ki of 840 nM.

For `CC(C)(NC(=O)CNC(=O)Nc1ccc(C(=N)N)cc1)c1ccccc1` [Example 42], the inhibition constant Ki was found to be 7620 nM.

Turning to `N#CC(NC(=O)CNC(=O)Nc1ccc(C(=N)N)cc1)c1ccc(F)cc1` (centres unmarked) [Example 43], affinity was put at a Ki of 8470 nM.

As to `N=C(N)c1ccc(NC(=O)NCC(=O)N[C@H]2CCc3ccccc32)cc1` [Example 44], the Ki worked out at 1500 nM.

Consider `N=C(N)c1ccc(NC(=O)NCC(=O)N[C@H]2CCCc3ccccc32)cc1` [Example 45], for which the affinity, expressed as Ki, was 1410 nM.

For the compound `CC(NC(=O)CNC(=O)Nc1ccc(C(=N)N)cc1)c1ccc(NC(=O)C2CCNCC2)cc1` (centres unmarked) [Example 49, Piperidine-4-carboxylic acid 4-(1-{2-[3-(4-carbamimidoylphenyl)ureido]acetylamino}-ethyl)phenylamide], the Ki is 13 nM.

As for `CC(NC(=O)CNC(=O)Nc1ccc(C(=N)N)cc1)c1ccc(NC(=O)c2cccnc2)cc1` (centres unmarked) [Example 51], the affinity, expressed as Ki, was 50 nM.

The compound `CC(NC(=O)CNC(=O)Nc1ccc(C(=N)N)cc1)c1ccc(NC(=O)c2cccc(Oc3ccccc3)c2)cc1` (centres unmarked) [Example 52] yielded a Ki of 12 nM.

`CC(NC(=O)CNC(=O)Nc1ccc(C(=N)N)cc1)c1ccc(NC(=O)CCCN)cc1` (centres unmarked) [Example 54] had an inhibition constant Ki of 47 nM.

Take `CC(NC(=O)CNC(=O)Nc1ccc(C(=N)N)cc1)c1ccc(C(F)(F)F)cc1C(F)(F)F` (centres unmarked) [Example 60]: affinity was put at a Ki of 27 nM.

As for `CC(NC(=O)CNC(=O)Nc1ccc(C(=N)N)cc1)c1ccc2c(c1)NC(=O)CO2` (centres unmarked) [Example 61], the affinity, expressed as Ki, was 23 nM.

Compound `COC(=O)c1cc(C(C)NC(=O)CNC(=O)Nc2ccc(C(=N)N)cc2)ccc1OCc1ccccc1` (centres unmarked) [Example 64] came in with a Ki of 33 nM.

`CC(NC(=O)CNC(=O)Nc1ccc(C(=N)N)c(Cl)c1)c1ccc2c(c1)OCCO2` (centres unmarked) [Example 68, 2-[3-(4-Carbamimidoyl-3-chlorophenyl)ureido]-N-[1-(2,3-dihydrobenzo[1,4]dioxin-6-yl)ethyl]acetamide]: the Ki stood at 3940 nM.

Take `C[C@H](NC(=O)CNC(=O)Nc1ccc(C(=N)N)c(F)c1)c1cccc(Br)c1` [Example 69, N-[(S)-1-(3-Bromophenyl)ethyl]-2-[3-(4-carbamimidoyl-3-fluorophenyl)ureido]-acetamide]: the Ki was 116 nM.

Compound `C[C@H](NC(=O)[C@H](CCC(=O)O)NC(=O)Nc1ccc(C(=N)N)cc1)c1cccc(Br)c1` [Example 70, (S)-4-[((S)-1-(3-Bromophenyl)ethyl)carbamoyl]-4-[3-(4-carbamimidoylphenyl)ureido]-butyric Acid] gave a Ki of 539 nM.

Tested on in the next data set: not given
Experiment: not given
Conditions: not given
In the case of `CN(C)c1ccc(CNC(=O)C(Cc2ccccc2)NC(=O)Nc2ccc(C(=N)N)cc2)cc1` (centres unmarked) [Example 2, 2-[3-(4-Carbamimidoylphenyl)ureido]-N-(4-dimethylaminobenzyl)-3-phenylpropionamide], the melting point amounted to 147 °C.

In turn, `CN(C)c1ccc(CNC(=O)CNC(=O)Nc2ccc(C(=N)N)cc2)cc1` [Example 4, 2-[3-(4-Carbamimidoylphenyl)ureido]-N-(4-dimethylaminobenzyl)acetamide] yielded a melting point of 209 to 214 °C.
